Data from patent US8722937B2 (priority 2006, dated 2014).
In brackets after ≈: the same amount, converted by molar mass. Where two headings read alike, the source gives them in different places.

Experiments:
S. aureus (ATCC 25923) [1] = assay: microbe, parasite or virus in culture; format: cell-based, Staphylococcus aureus; conditions: 24 h, 37° C.; for zone of inhibition at 20 µg/disc: Staphylococcus aureus, ATCC25923
[2] = test system: methicillin-resistant S. aureus (MRSA); assay: microbe, parasite or virus in culture; format: cell-based, Staphylococcus aureus; conditions: 24 h, 37° C.
S. aureus (ATCC 25923) [3] = assay: Agar dilution minimum inhibitory concentration (MIC), S. aureus; format: cell-based, Staphylococcus aureus; conditions: Staphylococcus aureus, ATCC25923; serial dilution in 24-well plate, NCCLS; read-out: Minimum inhibitory concentration (MIC) against S. aureus (ATCC 25923)
B. anthracis (USF 848) = assay: microbe, parasite or virus in culture; format: cell-based, Bacillus anthracis; conditions: Bacillus anthracis; 24 h, 37° C.; read-out: Zones of growth inhibition of B. anthracis (USF 848), areas of partial growth inhibition
[4] = read-out: Zones of growth inhibition of S. aureus (ATCC 25923), areas of partial inhibition
[5] = read-out: Zones of growth inhibition of S. aureus (ATCC 25923)

SMILES	zone of inhibition at 20 µg/disc (S. aureus (ATCC 25923) [1]; [4])	zone of inhibition at 20 µg/disc (S. aureus (ATCC 25923) [1]; [5])	further results
CCSSCCNC(=O)CCNC(=O)[C@H](O)C(C)(C)COP(=O)(O)OP(=O)(O)OC[C@H]1O[C@@H](n2cnc3c(N)ncnc32)[C@H](O)[C@@H]1OP(=O)(O)O [Compound 25b]			Zones of growth inhibition, S. aureus (S. aureus (ATCC 25923) [1]): 0 mm; Zones of growth inhibition, MRSA [2]: 0 mm
CSS(C)(=O)=O [Compound 26a, reference compound]			Zones of growth inhibition, S. aureus (S. aureus (ATCC 25923) [1]): 22 mm; Zones of growth inhibition, MRSA [2]: 23 mm
CCSS(C)(=O)=O [Compound 26b]			Zones of growth inhibition, S. aureus (S. aureus (ATCC 25923) [1]): 19 mm; Zones of growth inhibition, MRSA [2]: 20 mm
CCC(C)SS(C)(=O)=O (stereo not shown) [Compound 26c]			Zones of growth inhibition, S. aureus (S. aureus (ATCC 25923) [1]): 23 mm; Zones of growth inhibition, MRSA [2]: 23 mm
CSSc1ccc(F)c(F)c1 [Compound 33a, 3,4-Difluorophenyl Methyl Disulfide]	11 mm		
CCSSc1ccc(F)c(F)c1 [Compound 33b, 3,4-Difluorophenyl Ethyl Disulfide]	9 mm		
CC(C)SSc1ccc(F)c(F)c1 [Compound 33c, 3,4-Difluorophenyl Isopropyl Disulfide]	9 mm		
CCC(C)SSc1ccc(F)c(F)c1 (stereo not shown) [Compound 33d, Sec-Butyl 3,4-Difluorophenyl Disulfide]	9 mm		
CCCSSc1ccc(F)c(F)c1 [Compound 33e, 3,4-Difluorophenyl n-propyl Disulfide]		0 mm	
CCCCSSc1ccc(F)c(F)c1 [Compound 33f, n-Butyl 3,4-difluorophenyl Disulfide]	10 mm		
CCSSc1ccccc1Cl [Compound 34b, o-Chlorophenyl Ethyl Disulfide]	9 mm		
CC(C)SSc1ccccc1Cl [Compound 34c, o-Chlorophenyl Isopropyl Disulfide]	11 mm		
CCC(C)SSc1ccccc1Cl (stereo not shown) [Compound 34d, s-Butyl o-chlorophenyl Disulfide]	10 mm		
CCCSSc1ccccc1Cl [Compound 34e, o-Chlorophenyl n-propyl Disulfide]		0 mm	
CCCCSSc1ccccc1Cl [Compound 34f, n-Butyl o-chlorophenyl Disulfide]	9 mm		
CSSc1ccc(C)c(C)c1 [Compound 35a, 3,4-Dimethylphenyl Methyl Disulfide]	10 mm		
CCSSc1ccc(C)c(C)c1 [Compound 35b, 3,4-Dimethylphenyl ethyl disulfide]		0 mm	
Cc1ccc(SSC(C)C)cc1C [Compound 35c, 3,4-Dimethylphenyl Isopropyl Disulfide]	9 mm		
CCC(C)SSc1ccc(C)c(C)c1 (stereo not shown) [Compound 35d, sec-Butyl 3,4-dimethylphenyl Disulfide]		0 mm	
CCCSSc1ccc(C)c(C)c1 [Compound 35e, 3,4-Dimethylphenyl n-propyl Disulfide]		0 mm	
CCCCSSc1ccc(C)c(C)c1 [Compound 35f, n-Butyl 3,4-dimethylphenyl Disulfide]		0 mm	
CCOc1cccc(SSC)c1 [Compound 36a, m-Ethoxyphenyl Methyl Disulfide]	9 mm		
CSSc1ccc(N)cc1 [Compound 39a, p-Aminophenyl Methyl Disulfide]		0 mm	
CSSc1ccccc1CO [Compound 41a, o-(Hydroxymethyl)phenyl Methyl Disulfide]	14 mm		MIC (S. aureus (ATCC 25923) [3]): 64 µg/mL (≈ 344 µM)
CSSc1ccccn1 [Compound 42a, Methyl 2-pyridinyl Disulfide]	23 mm	16 mm	MIC (S. aureus (ATCC 25923) [3]): 64 µg/mL (≈ 407 µM); activity against S. aureus (ATCC 25923) in Kirby-Bauer assay, in words (S. aureus (ATCC 25923) [1]): some activity
CC(C)SSc1ccccn1 [Compound 42c, Isopropyl 2-pyridinyl Disulfide]		0 mm	zone of inhibition at 20 µg/disc (B. anthracis (USF 848)): 16 mm
CCC(C)SSc1ccccn1 (stereo not shown) [Compound 42d, s-Butyl 2-pyridinyl Disulfide]		0 mm	zone of inhibition at 20 µg/disc (B. anthracis (USF 848)): 17 mm
